Target: human norepinephrine transporter (Homo sapiens (Human), UniProt P23975)
Assay: Human NET (norepinephrine transporter) uptake assay
Format: cell-based
Settings: comparison in words, used to assign configuration
Experimental: This protocol was designed to measure inhibition of uptake by the human norepinephrine transporter. […] The Assay Buffer (AB) was 1×HBSS and 0.02 M HEPES.
The HEK293F cells were transfected with the human norepinephrine transporter and frozen in 1 mL aliquots at about 1E+07 cells/mL. On the day of the experiment, the cells were removed from −80° C. or liquid nitrogen and thawed in a room temperature water bath. The cells were dilute to about 1-2E+06 with Freestyle medium. A 1 mL sample (1:2 dilution) was prepared, and the cells were counted. The cells were spun at 1100 rpm for 5 minutes, and the medium was aspirated off. The cells were resuspend in medium at 1.5E+06 cells/mL for about 60,000 cells per well. 40 μL of cells were dispensed per well in the Biocoat plates. The plates were spun at 1100 rpm for 1 minute to improve homogeneity of the cell layer and were incubated at 37° C. for a minimum of 3 hours.
12 μL of test compound (10 mM) in DMSO was added to the wells, and nomifensine was used as a control. […] The neurotransmitter transporter dye was prepared in AB prior to use.
Due to the proprietary nature of the dye formulation, all dye concentrations were expressed as a percentage of the vendor-recommended dye reconstitution. Thus, the above calculations were valid when both [dye] and Km were expressed in the same units (%). Compounds were tested in triplicate (n=3).

Sequence of human norepinephrine transporter (P23975 whole entry): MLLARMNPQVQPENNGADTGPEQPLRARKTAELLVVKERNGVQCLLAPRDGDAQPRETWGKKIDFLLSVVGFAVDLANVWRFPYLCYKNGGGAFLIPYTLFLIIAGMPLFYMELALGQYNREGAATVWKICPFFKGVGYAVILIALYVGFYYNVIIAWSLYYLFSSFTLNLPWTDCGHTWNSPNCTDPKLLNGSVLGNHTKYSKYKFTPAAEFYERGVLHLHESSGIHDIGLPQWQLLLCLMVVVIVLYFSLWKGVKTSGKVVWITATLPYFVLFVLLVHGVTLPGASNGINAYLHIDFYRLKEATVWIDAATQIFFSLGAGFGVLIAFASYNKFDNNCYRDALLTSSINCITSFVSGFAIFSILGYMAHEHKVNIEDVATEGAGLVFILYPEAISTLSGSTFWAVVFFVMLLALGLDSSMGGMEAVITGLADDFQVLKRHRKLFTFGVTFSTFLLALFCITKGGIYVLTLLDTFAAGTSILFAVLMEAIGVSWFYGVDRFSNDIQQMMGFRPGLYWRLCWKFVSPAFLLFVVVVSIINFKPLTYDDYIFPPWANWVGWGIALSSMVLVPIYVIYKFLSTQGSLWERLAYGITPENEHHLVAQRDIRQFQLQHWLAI

Compound | potency at hNET relative to the other enantiomer or epimer
CNC[C@H](c1ccc2ccccc2c1)[C@H](O)c1cc(F)cc(F)c1 (single isomer, unassigned) [compound 37] | more potent
CNCC(Cc1ccccc1CO)c1ccc2ccccc2c1 (stereo not drawn) [compound 2] | more potent
CNC[C@H](c1ccc(Cl)c(Cl)c1)[C@H](O)c1ccccc1 [compound 10] | more potent
CNCC(c1ccc(Br)c(Cl)c1)[C@H](O)c1ccccc1 (stereo partly drawn) [compound 16] | more potent
CNC[C@H](c1ccc(Br)c(Cl)c1)[C@@H](O)c1ccccc1 [compound 21] | more potent
CNC[C@H](c1ccc2ccccc2c1)[C@H](O)c1ccc(Cl)nc1 [compound 26] | higher inhibitory activity
CNCC(CCc1ccccc1)[C@@H](O)c1ccccc1 (stereo partly drawn) [compound 27] | more potent
CNC[C@H](c1ccc2ccccc2c1)[C@H](O)c1ccccc1C [compound 28] | more potent
CNCC(Cc1ccccc1C)c1ccc2ccccc2c1 (stereo not drawn) [compound 39] | more potent
C[C@](CN)(Cc1cccnc1)c1ccc2ccccc2c1 [compound 42] | more potent
CNC[C@@H](Cc1ccc(C)s1)c1ccc2ccccc2c1 [compound 44] | higher potency
CNCC(Cc1cccnc1)c1ccc2ccccc2c1 (stereo not drawn) [compound 48] | more potent
CNC[C@@H](c1ccc2ccccc2c1)[C@@H](O)c1cccnc1 [compound 49] | more potent
CNCC(Cc1ccccc1O)c1ccc2ccccc2c1 (stereo not drawn) [compound 52] | more potent
CNCC(Cc1ccccc1OC)c1ccc2ccccc2c1 (stereo not drawn) [compound 57] | more potent
NC[C@H](c1ccc2ccccc2c1)[C@@H](O)c1ccncc1Cl [compound 95] | higher inhibitory activity

Compound | potency at hNET relative to the other enantiomer or epimer
CNC[C@H](c1ccc(Cl)c(Cl)c1)[C@@H](O)c1ccccc1-c1cccs1 [compound 100] | higher inhibitory activity
CNC[C@@H](c1ccc2ccccc2c1)[C@@H](O)c1cccnc1 [compound 103] | less potent
CNC[C@@H](c1ccc(Cl)c(Cl)c1)[C@@H](O)c1ccsc1 [compound 106] | lower potency
CNC[C@@H](c1ccc(Br)c(Cl)c1)[C@@H](O)c1ccccc1 [compound 110] | lower potency
CNC[C@@H](c1ccc(Cl)c(Cl)c1)[C@@H](O)c1ccccc1 [compound 114] | weak hNET potency
NC[C@@H](c1ccc2ccccc2c1)C(O)c1ccncc1Cl (stereo partly drawn) [compound 118] | lower potency
CNC[C@@H](c1ccc(Cl)c(Cl)c1)[C@@H](O)c1cccc(SC)c1 [compound 120] | lower inhibitory activity
CNC[C@@H](c1ccc(Cl)c(Cl)c1)[C@@H](O)c1cccc(NS(=O)(=O)C(F)(F)F)c1 [compound 121] | lower potency
CNC[C@@H](c1ccc2ccccc2c1)[C@@H](O)c1cncc(OC)c1 [compound 122] | lower inhibitory activity
NC[C@@H](c1ccc2ccccc2c1)[C@@H](O)c1ccc(Cl)nc1 [compound 126] | lower potency
NC[C@@H](Cc1ccccc1O)c1ccc2ccccc2c1 [compound 133] | more potent
CNC[C@H](c1ccc2ccccc2c1)[C@@H](O)c1cc(F)cc(F)c1 [compound 141] | more potent
CNC[C@H](c1ccc2ccccc2c1)[C@H](O)c1ccc2c(c1)OCCO2 [compound 143] | higher potency
CNCC(CCc1ccccc1)[C@@H](O)c1ccccc1 (stereo partly drawn) [compound 147] | lower potency
CNC[C@H](c1ccc(Cl)c(Cl)c1)[C@H](O)c1cccc(I)c1 [compound 151] | higher potency
CNC[C@@H](c1ccc(Cl)c(Cl)c1)[C@@H](O)c1cccc(OC)n1 [compound 157] | lower potency

More lines, now with the values ahead:

potency at hNET relative to the other enantiomer or epimer | Compound
equipotent | CNC[C@@H](c1ccc(Cl)c(Cl)c1)[C@@H](O)c1cccc([S+](C)[O-])c1 (single isomer, unassigned) [compound 116]
equipotent | O[C@@H](c1ccccc1)[C@@H](CNCC(F)(F)F)c1ccc2ccccc2c1 (single isomer, unassigned) [compound 130]
similar | CNC[C@H](c1ccc(Cl)c(Cl)c1)[C@H](O)c1cccc(N(C)C)c1 (single isomer, unassigned) [compound 168]
more potent | CNC[C@H](c1ccc2ccccc2c1)[C@H](O)c1ccccc1F [compound 15]
more potent | CNC[C@H](c1ccc(OC)c(C)c1)[C@H](O)c1cccnc1 [compound 55]
more potent | CNC[C@H](c1ccc2ccccc2c1)[C@@H](O)c1ccccc1F [compound 60]
more potent | CNC[C@H](c1ccc(Cl)c(Cl)c1)[C@@H](O)c1ccccc1[N+](=O)[O-] [compound 65]
less potent | CNCC(CCc1ccccc1)[C@H](O)c1ccccc1 (stereo partly drawn) [compound 66]
more potent | CNC[C@H](c1ccc(Cl)c(Cl)c1)[C@@H](O)c1ccccc1 [compound 70]
more potent | CNC[C@H](c1ccc(Cl)c(Cl)c1)[C@H](O)c1cccc(Br)c1 [compound 76]
less potent | CNC[C@@H](c1ccc2ccccc2c1)[C@@H](O)c1ccccc1F [compound 78]
more potent | CNCC(C[C@H](O)c1ccccc1)c1ccc2ccccc2c1 (stereo partly drawn) [compound 85]
less potent | CNCC(Cc1ccccc1CO)c1ccc2ccccc2c1 (stereo not drawn) [compound 90]
more potent | CNC[C@H](c1ccc2ccccc2c1)[C@H](O)c1cncc(OC)c1 [compound 92]
less potent | CNC[C@H](C[C@H](O)c1ccccc1)c1ccc2ccccc2c1 [compound 93]
more potent | CNC[C@H](c1ccc(Cl)c(Cl)c1)[C@@H](O)c1cccc(NC(C)=O)c1 [compound 94]

potency at hNET relative to the other enantiomer or epimer | Compound
less potent | CNC[C@@H](c1ccc2ccccc2c1)[C@H](O)c1ccccc1F [compound 96]
more potent | CNC[C@H](c1ccc(Cl)c(Cl)c1)[C@@H](O)c1ccccc1SC [compound 97]
less potent | CNC[C@@H](c1ccc(Cl)c(Cl)c1)[C@H](O)c1cccc(NC(C)=O)c1 [compound 98]
lower inhibitory activity | CNC[C@@H](c1ccc2ccccc2c1)[C@H](O)c1ccccn1 [compound 99]
higher potency | CNC[C@H](c1ccc(Cl)c(Cl)c1)[C@H](O)c1cccc(S(C)(=O)=O)c1 [compound 101]
more potent | CNC[C@H](c1ccc(Cl)c(Cl)c1)[C@H](O)c1cccc([N+](=O)[O-])c1 [compound 102]
higher inhibitory activity | CNC[C@H](c1ccc(Cl)c(Cl)c1)[C@@H](O)c1cccnc1OC [compound 104]
higher potency | NCC(c1ccc2ccccc2c1)C(O)c1ccc(F)cc1F (stereo not drawn) [compound 107]
lower potency | CNC[C@@H](c1ccc(Cl)c(Cl)c1)[C@@H](O)c1cncc(OC)c1 [compound 109]
lower inhibitory activity | CNC[C@@H](c1ccc(Cl)c(Cl)c1)[C@@H](O)c1cccc(N2CCOCC2)c1 [compound 125]
higher inhibitory activity | CNC[C@H](c1ccc(Cl)c(Cl)c1)[C@@H](O)c1cccc(NS(=O)(=O)C(F)(F)F)c1 [compound 127]
less potent | CNC[C@@H](c1ccc(Cl)c(Cl)c1)[C@@H](O)c1ccccc1[S+](C)[O-] (stereo partly drawn) [compound 128]
less potent | CNC[C@@H](c1ccc2ccccc2c1)[C@H](O)c1cc(F)cc(F)c1 [compound 142]
higher potency | CNC[C@H](c1ccc(Cl)c(Cl)c1)[C@@H](O)c1ccccc1I [compound 152]
lower potency | CNC[C@@H](c1ccc(Cl)c(Cl)c1)[C@@H](O)c1cccc(SC)c1 [compound 154]

— patent US9944618B2, “Inhibiting neurotransmitter reuptake” (Mayo Foundation for Medical Education and Research, priority 2013, dated 2018)
